Our source for the Ki values is ChEMBL document CHEMBL5728923, “Cyclin dependent kinase inhibitors” (2022).

The target of the assay is Cyclin-dependent kinase 4/cyclin D1 (Homo sapiens, UniProt P11802+P24385). The assay can be described thus: Mobility Shift Assay : The purpose CDK4/Cyclin D1 assay is to evaluate the inhibition (% inhibition, Kiapp and Ki values) in the presence of small molecule inhibitors by using a fluorescence based microfluidic mobility shift assay. CDK4/Cyclin D1 catalyzes the production of ADP from ATP that accompanies the phosphoryl transfer to the substrate peptide 5-FAM-Dyrktide (5-FAM-[…]) (SEQ ID NO:1). The mobility shift assay electrophoretically separates the fluorescently labeled peptides (substrate and phosphorylated product) following the kinase reaction. Both substrate and product are measured and the ratio of these values is used to generate % Conversion of substrate to product by the LabChip EZ Reader. […] The reaction was stopped after 195 minutes by the addition of 50 μL of 30 mM EDTA. Ki determinations were made from a plot of the fractional velocity as a function of inhibitor concentration fit to the Morrison equation with the enzyme concentration as a variable. Type of assay: protein-complex assay.
Cyclin-dependent kinase 4/cyclin D1, sequence (P11802 whole entry): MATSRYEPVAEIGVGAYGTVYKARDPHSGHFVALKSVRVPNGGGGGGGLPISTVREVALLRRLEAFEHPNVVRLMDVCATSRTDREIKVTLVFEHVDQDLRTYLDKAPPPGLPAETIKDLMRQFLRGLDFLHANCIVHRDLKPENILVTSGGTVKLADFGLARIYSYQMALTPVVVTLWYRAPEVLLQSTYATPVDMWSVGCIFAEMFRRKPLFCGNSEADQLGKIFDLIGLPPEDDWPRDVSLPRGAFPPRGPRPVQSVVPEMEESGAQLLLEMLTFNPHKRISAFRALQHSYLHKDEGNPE
Cyclin-dependent kinase 4/cyclin D1, sequence (P24385 whole entry): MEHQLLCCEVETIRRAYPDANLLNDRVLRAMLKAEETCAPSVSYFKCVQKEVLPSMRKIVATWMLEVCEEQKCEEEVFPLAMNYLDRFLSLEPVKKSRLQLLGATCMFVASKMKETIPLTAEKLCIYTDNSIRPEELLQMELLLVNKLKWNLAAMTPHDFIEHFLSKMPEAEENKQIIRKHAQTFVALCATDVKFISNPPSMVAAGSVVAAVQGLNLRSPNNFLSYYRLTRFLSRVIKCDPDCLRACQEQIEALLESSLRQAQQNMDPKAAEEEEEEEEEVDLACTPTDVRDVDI

As for `CC(C)n1c([C@H](C)O)nc2c(F)cc(-c3cc(N[C@@H]4CCN(S(C)(=O)=O)C[C@H]4O)ncc3Cl)cc21` (single isomer, unassigned), the Ki was 0.1 nM.
